The test system of assay [1] is KLH-specific T cell responses. Description: Adoptive transfer of TCT-treated DCs; ex vivo lymph node T cell responses. It is filed as in vivo, BALB/c mice. As to the method:
Bone marrow-derived DCs from BALB/c mice were cultured in 2% heat inactivated normal mouse sera and 40 ng/ml recombinant GM-CSF for 12 days. DCs were harvested and cultured O/N at a concentration of 1×10^6 cells/ml. DCs were then incubated with KLH (20 μg/ml) alone, KLH (20 μg/ml) and TCT (10 μg/ml), KLH (20 μg/ml) plus Pam-3Csk (TLR2 agonist; 500 ng/ml), or with KLH (20 μg/ml) and TCT (10 μg/ml) and Pam-3Csk (500 ng/ml). After 2 hours incubation, cells were washed and injected sub-cutaneously (s.c.) into the flank of BALB/c mice (1×10^5 cells/mouse). T cell responses were assessed 14 days later from pooled local inguinal lymph node cells stimulated with antigen ex-vivo.
Lymph node cells from each treatment group were pooled and cultured in the presence of KLH (2, 10 and 50 μg/ml) or PMA/CD3 or medium, as positive and negative controls respectively. Supernatants were collected 72 h later for cytokine analysis (IFN-γ, IL-10, IL-4 and IL-5 were evaluated by specific ELISA FIG. 12). Fresh medium was added to the wells and cells were incubated overnight. At day 4, 2 μCi of ^3H thymidine was added to each well. Plates were incubated for a further 6 hours, after which cells and ^3H incorporation was determined (FIG. 12).

Assay [2] relates to Graft-versus-host disease (GVHD). Description: Parent-to-F1 hybrid graft-versus-host disease (GVHD) model. It is filed as in vivo, BALB/c×C57Bl/6 F1 hybrid mice. The conditions noted are these: TCT 10 μg/mouse s.c. footpad 2 hours prior to induction; day 7. From the text: Graft-versus-host disease (GVHD) is a major life-threatening complication of bone marrow transplantation, where T cells from the donor graft attack host cells leading to a condition that is only treatable using potent immunosuppressive drugs. It is possible to examine the potential of therapies for the prevention or treatment of GVHD in humans by testing their efficacy using a simple GVHD model in mice. The parent-to-F1 hybrid GVHD murine model involves the transfer of parental lymphocytes into non-conditioned F1 hybrid mice. Using this strain combination the host T cells cannot actively resist the donor cells.
GVHD was induced by transfer of 0.5×10^7 spleen cells from donor C57BL/6 mice into the footpads of BALB/c×C57Bl/6 F1 hybrid mice. Recipient mice were injected s.c into the footpad with PBS or TCT (10 μg/mouse) 2 hours prior to induction of GVHD. After 7 days, the popliteal lymph nodes were removed, weighed and cell numbers were recorded.

[3] abbreviates: DCs treated with KLH and Pam-3Csk, also treated with TCT.
Setting [4] is: KLH treated DCs also treated with TCT.

The values that follow come from US20090176696A1, “Methods And Compositions For Modulating An Immune Response” (priority 2006, published 2009).

`CC(=O)NC1C(OC2C3COC(O3)C(NC(C)=O)C2OC(C)C(=O)NC(C)C(=O)NC(CCC(=O)NC(CCCC(N)C(=O)NC(C)C(=O)O)C(=O)O)C(=O)O)OC(CO)C(O)C1O` (stereo not shown) [TCT, N-acetylglucosaminyl-1,6-anhydro-N-acetylmuramylalanyl-γ-glutamyldiaminopimelylalanine]: in assay [1] (setting [3]), the “antigen-specific IFN-gamma production, lymph node cells” value is recorded as “completely abolished” and the “antigen-specific IL-10 production, lymph node cells” value was “completely abolished”. For the same molecule, in assay [1] (DCs treated with TCT and KLH), the “KLH-specific IFN-gamma production, lymph node cells” value is “No KLH-specific IFN-gamma, IL-10 and IL-4 production was detected”. In assay [1] (DCs treated with TCT and Pam-3Csk with KLH vs Pam-3Csk with KLH), the “KLH-specific proliferation by lymph node cells” value is recorded as “profound impairment”. Also, in assay [1] (setting [4]), the “antigen-specific IL-4 production, lymph node cells” value was “abolished” and the “antigen-specific IL-10 production, lymph node cells” value is reported as “abolished”. Also, in assay [1] (KLH treated DCs also treated with TCT vs KLH treated DCs alone), the “proliferation by lymph node cells” value is “almost abolished”. For the same molecule, the “Antigen-specific IL-5 production, LN cells” value in assay [1] (all treatment groups) was “not above background concentrations”. Moreover, in assay [2], the “total cells counts in the lymph node of the recipient mice” value is given as “significantly reduced” and the “weight of the lymph node of the recipient mice” value is given as “significantly reduced”.
